# Data as given in ChEMBL document CHEMBL3045850, “Effects of Pyridalyl, a Novel Insecticidal Agent, on Cultured Sf9 Cells” (2005).
# The source made the active and inactive calls. The calls are words filed in the database; no cut-off is given here.
# Columns and labels:
# [1] = test system: Sf9; assay: Cytotoxicity against Spodoptera frugiperda (fall armyworm) Sf9 cells at 10 uM after 72 hr by trypan blue dye exclusion test; type: functional, cell-based
# [2] = test system: Spodoptera litura; assay: Insecticidal activity against Spodoptera litura assessed as mortality at 500 mg/L after 6 days; type: functional; settings: 144 h
# [3] = test system: Sf9; assay: Cytotoxicity against Spodoptera frugiperda (fall armyworm) Sf9 cells at 5 uM after 72 hr by trypan blue dye exclusion test; type: functional, cell-based
# [4] = test system: Sf9; assay: Cytotoxicity against Spodoptera frugiperda (fall armyworm) Sf9 cells at 1 to 10 uM after 72 hr by trypan blue dye exclusion test; type: functional, cell-based
# [5] = test system: Sf9; assay: Induction of cell growth in Spodoptera frugiperda (fall armyworm) Sf9 cells at 10 uM after 72 hr by trypan blue dye exclusion test; type: functional, cell-based
# [6] = test system: Sf9; assay: Cytotoxicity against Spodoptera frugiperda (fall armyworm) Sf9 cells at 0.1 to 1 uM after 72 hr by trypan blue dye exclusion test; type: functional, cell-based
# [7] = test system: Sf9; assay: Cytotoxicity against Spodoptera frugiperda (fall armyworm) Sf9 cells at 0.1 to 10 uM after 72 hr by trypan blue dye exclusion test; type: functional, cell-based
# [8] = test system: Spodoptera litura; assay: Inhibition of mitochondrial respiration in Spodoptera litura mitochondria assessed as oxygen consumption at 20 uM at 1:1 minute after addition of 0.1 mM of ADP (reference value: 12.2%); type: functional; set-up: scale not given: the % may be the effect or the level left
# [9] = test system: Spodoptera litura; assay: Inhibition of mitochondrial respiration in Spodoptera litura mitochondria assessed as oxygen consumption at 20 uM at 3:1 minute after addition of 0.2 mM of rotenone and 0.1 mM of succinate (reference value: 0.5%); type: functional; set-up: scale not given: the % may be the effect or the level left
# [10] = test system: Sf9; assay: Cytotoxicity against Spodoptera frugiperda (fall armyworm) Sf9 cells assessed as formation of granular structures at 1 to 10 uM after 72 hr by microscopic analysis; type: functional, cell-based
# [11] = test system: Sf9; assay: Cytotoxicity against Spodoptera frugiperda (fall armyworm) Sf9 cells at 0.01 to 10 uM after 72 hr by trypan blue dye exclusion test; type: functional, cell-based
# [12] = test system: Spodoptera litura; assay: Inhibition of mitochondrial respiration in Spodoptera litura mitochondria assessed as oxygen consumption at 20 uM at 2:1 minute after addition of 0.1 mM of ADP (reference value: 54.4%); type: functional; set-up: scale not given: the % may be the effect or the level left
SMILES,Activity [1],mortality at 500 µg/mL [2] [%],further results
ClC(Cl)=CCOc1cc(Cl)c(OCCCOc2ccc(Cl)cc2)c(Cl)c1,Active,100,
C[C@@]1(CO)[C@H](O)CC[C@@]2(C)[C@H]1CC[C@H]1C[C@@H]3C[C@@]12CC[C@]3(O)CO,,,Activity [3]: inactive
C=C(C)[C@H]1Cc2c(ccc3c2O[C@@H]2COc4cc(OC)c(OC)cc4[C@@H]2C3=O)O1,,,Activity [4]: Active
CNC(=O)ON=C(C)SC,,,Activity [5]: Active
O=c1[nH]cc(F)c(=O)[nH]1,,,Activity [6]: Active
CC[C@H]1/C=C/C=C/C[C@@H](C)[C@H](O)[C@@](C)(O)C(=O)[C@@H](C)[C@H](O)[C@@H](C)C(=O)[C@@H](C)[C@H](O)[C@@H](C)/C=C/C(=O)O[C@@H]2[C@H](C)[C@H](CC1)O[C@]1(CC[C@H](C)[C@H](C[C@@H](C)O)O1)[C@H]2C,,,Activity [4]: Active
CC(COc1cc(Cl)c(OCCCOc2ccc(Cl)cc2)c(Cl)c1)=C(Cl)Cl,inactive,0,
COP(=O)(NC(C)=O)SC (stereo unspecified),,,Activity [5]: Active
COc1ccc(C[C@H]2NC[C@H](O)[C@H]2OC(C)=O)cc1,Active,,
O=[N+]([O-])c1ccc(O)c([N+](=O)[O-])c1,Active,,
CC1(C)C(C=C(Cl)Cl)C1C(=O)OC(C#N)c1cccc(Oc2ccccc2)c1 (stereo unspecified),,,Activity [5]: Active
ClC(Cl)=C(Cl)COc1cc(Cl)c(OCCCOc2ccc(Cl)cc2)c(Cl)c1,inactive,0,
FC(F)(F)c1ccc(OCCCOc2ccc(OCC=C(Cl)Cl)cc2)nc1,inactive,0,
CCOCn1c(-c2ccc(Cl)cc2)c(C#N)c(Br)c1C(F)(F)F,,,Activity [7]: Active
FC(F)(F)c1ccc(OCCCOc2c(Cl)cc(OCC=C(Cl)Cl)cc2Cl)nc1 [PYRIDALYL],,100,Activity [8]: 12.2%; Activity [9]: 0.5%; Activity [10]: Active; Activity [11]: Active; Activity [12]: 53.3%
FC(F)(F)c1ccc(OCCCOc2c(Cl)cc(OC/C(Cl)=C/Cl)cc2Cl)nc1,inactive,0,
